Laboratory results as given in paper PMC9481563, “Structural insights into the pSer/pThr dependent regulation of the SHP2 tyrosine phosphatase in insulin and CD28 signaling” (Nature Communications, 2022).
Entries after “also recorded” stand apart in the source; their conditions may differ.

Experiments:
[1] = test system: SHP2; settings: SHP2 substrate sites, cutoff > 0.5 for genuine substrates; ref [1] Barr AJ et al., Cell 136, 352-63 (2009); cited from earlier work
Text: page 80: Supplementary tables Peptide name Sequence Activity (Arb. u.) CADH2-Y785 […] 0.7 ERBB2-Y1248 […]- 0.6 PGFRB-Y751 […] 1 LCK-Y394 […] 1.3 CSK-Y184 […] 1.5 GHR-Y487 […] 0.8 TIE2-Y816 […] 1.2 ERBB2-Y1139 […] 1.2 WASP-Y290 […] 0.6 PAXI-Y118 […] 0.8 Supplementary table 1. SHP2 substrate sites derived from a large-scale comparative study with quantitative results. A cutoff of > 0.5 was applied to separate genuine SHP2 substrates from spurious signals. ...

[2] = test system: tyrosine kinase domain of the human insulin receptor (InsR); experiment: Capillary electrophoresis phosphorylation assay, InsR kinase domain; format: biochemical; settings: CE assay, effect of pSer vs non-phosphorylated peptide of the pair; 1 mM ATP, pH 7.5; n = 1
Procedure: Ni-NTA purified stocks were subjected to anion exchange chromatography using an Äkta explorer instrument (Amersham Pharmacia) and Resource Q columns (GE healthcare). Prior to anion exchange, all proteins were dialyzed overnight against a low salt buffer (10–50 mM NaCl, 20 mM TRIS [pH = 8.0], 10% glycerol and 1 mM 1,4-dithiothreitol [DTT]) using a Servapor MWCO 12,000–14,000 membrane. Proteins loaded onto the column were eluted using a salt gradient up to 1 M NaCl over 30 min. Purity of proteins was assessed by SDS-PAGE and final samples were typically found to have >95% purity (see Supplementary figs. 85, 86). The protein aliquots were snap-frozen in liquid nitrogen and stored in −80 °C. […]
Phosphorylation and dephosphorylation assays with peptides were performed using capillary electrophoresis on an Agilent Capillary Electrophoresis ^3DCE system (Agilent Technologies, Waldbronn, Germany) applying DB-WAX coated silica capillary having a 33.5 cm total and 25 cm effective length with 50 μm I.D. (Agilent Technologies, Santa Clara, CA, USA). On-line absorption at 200 nm was monitored by DAD UV-Vis detector. […] Kinetic curves in the article are always presented with exponential fits (that approximate the integrated Michaelis-Menten functions decently on the measured time intervals).

[3] = test system: wild-type SHP2 catalytic domain; experiment: Capillary electrophoresis dephosphorylation assay, SHP2 catalytic domain; format: biochemical, human; settings: for % nominal product: WT-SHP2 catalytic domain
Procedure: Phosphorylation and dephosphorylation assays with peptides were performed using capillary electrophoresis on an Agilent Capillary Electrophoresis ^3DCE system (Agilent Technologies, Waldbronn, Germany) applying DB-WAX coated silica capillary having a 33.5 cm total and 25 cm effective length with 50 μm I.D. (Agilent Technologies, Santa Clara, CA, USA). On-line absorption at 200 nm was monitored by DAD UV-Vis detector. The capillary was thermostated at 25 °C. Before measurements the capillary was rinsed subsequently with distilled water for 15 min and between measurements with BGE (100 mM trimethylamine-phosphate buffer (pH 2.5)) for 3 min. Samples were injected by 5 × 103 Pa pressure for 6 s. Runs were performed in the positive-polarity mode with 20 kV. […] The reaction was initialized by addition of the phosphatase enzyme. Kinase reactions were realized with the following buffer: 20 mM potassium phosphate (monobasic), 15 mM sodium phosphate (dibasic), 100 mM NaCl, 5 mM MgCl2, 5% glycerol, 0,05% non-ionic detergent IGEPAL, pH 7.5; reaction was started with the addition of 1 mM of ATP. Sampling from reactions was done in real time, except when conditions required pre-concentration of samples (with PTP1B only). In the latter case, reactions were run in 15 ml Falcon tubes, using an NH4HCO3-based buffer (100 mM end concentration), with 5 nM enzyme. After heat inactivation (10 min at 75 °C), the latter samples were lyophilized until dry and reconstituted in 40 ul distilled H2O. Kinetic curves in the article are always presented with exponential fits (that approximate the integrated Michaelis-Menten functions decently on the measured time intervals).

[4] = test system: HEK293T cells co-transfected with IRS1-FLAG (wild-type or Ser/Ala mutant) and constitutive active SHP2; experiment: Cell-based IRS1 Y612 phosphorylation assay (western blot) after insulin; set-up: species or system human
Procedure: HEK293T cells (#CRL-3216 ATCC, Manassas, VA USA) were maintained in DMEM (#41966029 Gibco, Waltham MA USA) supplemented with 10% FBS (#10500064 Gibco), 1% penicillin-streptomycin (#P0781-100ML Sigma, St. Louis MI USA) and 0.1% Amphotericin B (#15290026 Gibco). Cells were plated into 24-well plates in 7.5 × 10^4/well concentration and co-transfected with wild-type or Ser/Ala mutant pcDNA3.1-IRS1-FLAG and constitutive active pcDNA3.1-SHP2 plasmids using Lipofectamine 3000 (#L3000008 Invitrogen) reagent following the manufacturer’s instruction. After overnight serum-starvation cells were treated with 1 µM insulin (I9278, Sigma) for 0–30 min and harvested in Western sample buffer. Samples were run in 4–20% gradient gel (#4561096 BioRad, Hercules, CA USA) and transferred to nitrocellulose membrane using Transblot-Turbo System (#1704271 BioRad). Membranes were incubated in 1:5000 M2 anti-FLAG (#1804-200UG Sigma) and 1:1000 anti-pY612-IRS1 (#44-816 G Invitrogen) overnight and labelled with 1:10000 IRDye anti- mouse 680 (#92668070 LICOR Biosciences, Lincoln, NE USA) and 1:10.000 IRDye anti- rabbit 800 […] (#92632211 LICOR Biosciences) secondary antibodies. Membranes were scanned using the Odyssey CLx Fluorescence Imaging System (LICOR Biosciences, v5.2.5.).

[5] = 19 min, average of 3 replicates
[6] = 35 min, average of 3 replicates

## ARLIEDNEYTAREGAKF [LCK-Y394, SHP2 substrate site peptide from a large-scale comparative study]
[1]
  Activity (Arb. u.): 1.3 Arb. u.

## DAETSKLIYDFIEDQGG [WASP-Y290, SHP2 substrate site peptide from a large-scale comparative study]
[1]
  Activity (Arb. u.): 0.6 Arb. u.

## GGGEEDQDYDLSQLQQP [CADH2-Y785, SHP2 substrate site peptide from a large-scale comparative study]
[1]
  Activity (Arb. u.): 0.7 Arb. u.

## GRKGSGDYMPM{pSer}PKS [0pIRS1, IRS1 Y632 peptide with pSer only, InsR kinase substrate]
[2]
  tyrosine phosphorylation by InsR kinase (in words): failed to indicate any major effect; also recorded: altered kinetics to a very limited degree

## HPPEPKSPGE{pTyr}VNIEFGS [p0Rev-IRS1, IRS1 Y896 peptide, phosphotyrosine-only, used for dephosphorylation assays]
[3]; [5]
  % nominal product: 2.9%
[3]; 19 min, replicate 01
  % nominal product: 4.9%
[3]; 19 min, replicate 02
  % nominal product: 4.1%
[3]; 19 min, replicate 03
  % nominal product: -0.2%
[3]; [6]
  % nominal product: 2.1%
[3]; 35 min, replicate 01
  % nominal product: 2.3%
[3]; 35 min, replicate 02
  % nominal product: 1.9%
[3]; 35 min, replicate 03
  % nominal product: 2.2%
[3]; 51 min, replicate 01
  % nominal product: 8.3%
[3]; 51 min, replicate 02
  % nominal product: 2.0%
[3]; 51 min, replicate 03
  % nominal product: 1.3%

## HPPEPK{pSer}PGEYVNIEFGS [0pRev-IRS1, IRS1 Y896 motif peptide with −4 pSer only]
[2]
  tyrosine phosphorylation by InsR kinase (in words): altered kinetics to a very limited degree; also recorded: no major differences

## HPPEPK{pSer}PGE{pTyr}VNIEFGS [ppRev-IRS1, IRS1 Y896 peptide with pSer in addition to pTyr, for dephosphorylation assays]
[3]; CE assay, substrate 50 μM, enzyme 25 nM, 50 mM TRIS, 150 mM NaCl, 1 mM EDTA, 2 mM DTT, IGEPAL 0.1%, pH 7.4
  tyrosine dephosphorylation rate (in words): superior reaction rates; also recorded: greatly enhanced
[3]; [5]
  % nominal product: 47.8%
[3]; 19 min, replicate 01
  % nominal product: 47.7%
[3]; 19 min, replicate 02
  % nominal product: 59.3%
[3]; 19 min, replicate 03
  % nominal product: 36.5%
[3]; [6]
  % nominal product: 52.8%
[3]; 35 min, replicate 01
  % nominal product: 58.7%
[3]; 35 min, replicate 02
  % nominal product: 60.4%
[3]; 35 min, replicate 03
  % nominal product: 39.2%
[3]; 51 min, average of 3 replicates
  % nominal product: 55.2%
[3]; 51 min, replicate 01
  % nominal product: 60.3%
[3]; 51 min, replicate 02
  % nominal product: 61.2%
[3]; 51 min, replicate 03
  % nominal product: 44.1%

## KNNPDPTIYPVLDWNDI [TIE2-Y816, SHP2 substrate site peptide from a large-scale comparative study]
[1]
  Activity (Arb. u.): 1.2 Arb. u.

## LTCSPQPEYVNQPDVRP [ERBB2-Y1139, SHP2 substrate site peptide from a large-scale comparative study]
[1]
  Activity (Arb. u.): 1.2 Arb. u.

## MSKDESVDYVPMLDMKG [PGFRB-Y751, SHP2 substrate site peptide from a large-scale comparative study]
[1]
  Activity (Arb. u.): 1 Arb. u.

## RVGEEEHVYSFPNKQKS [PAXI-Y118, SHP2 substrate site peptide from a large-scale comparative study]
[1]
  Activity (Arb. u.): 0.8 Arb. u.

## SSLSNIDFYAQVSDITP [GHR-Y487, SHP2 substrate site peptide from a large-scale comparative study]
[1]
  Activity (Arb. u.): 0.8 Arb. u.

## TPTAENPEYLGLDVPV- [ERBB2-Y1248, SHP2 substrate site peptide from a large-scale comparative study]
[1]
  Activity (Arb. u.): 0.6 Arb. u.

## TVAAQDEFYRSGWALNM [CSK-Y184, SHP2 substrate site peptide from a large-scale comparative study]
[1]
  Activity (Arb. u.): 1.5 Arb. u.

## wt
[4]; Supp Fig 13, baseline analysis, median of 12
  pY612-IRS1/FLAG ratio, Median value: 0.0394
[4]; Supp Fig 13, time course analysis, 0 min, median of 10
  pY612-IRS1/FLAG ratio, Median value: 0.0379
[4]; Supp Fig 13, time course analysis, 15 min, median of 10
  pY612-IRS1/FLAG ratio, Median value: 0.4550
[4]; Supp Fig 14, baseline analysis, median of 3
  pY612-IRS1/FLAG ratio, Median value: 0.0140
